Assay results reported in US20220047718A1, “Nanoparticle-Based Therapy of Inflammatory Disorders” (priority 2018, published 2022).

Legend:
[1] = tested on: Imiquimod (IMQ)-induced mouse model of psoriasis
Description: (a) Experimental Scheme of three-day IMQ treatment with seven-day systemic therapy. (b) (upper panel) change in ear thickness between control (PBS; crosses), IMQ-treated (squares), and systemic MTX therapy receiving (1 mg/kg (upward triangles), 2 mg/kg (downward triangles), 5 mg/kg (diamonds)) animals. (Lower panels) statistical analysis of ear thickness differences between groups between days 4-7.
(a) (upper panel), change in ear thickness between control (PBS, crosses), IMQ-treated (squares), and systemic therapy receiving in addition to IMQ, 2 mg/kg MTX (upward triangles), GNPs containing 5.5 mg/kg Au (downward triangles), and MTX-GNP containing 2 mg/kg MTX and 5.5 mg/kg Au (diamonds). (Lower panels) statistical analysis of ear thickness differences between groups between days 4-7. […] Data is pooled from 2-3 independent experiments, 2 to 5 mice per condition and represented as mean±standard deviation.
Clinical efficacy and in vivo tolerability were assessed against relevant controls for both systemic (subcutaneous injection) and topical administration.
First, we evaluated tolerance of mice to MTX with a dose escalation setup (FIG. 2b).

[2] = Formulation into Carbopol 980 gel: precipitation / homogeneity; type: physicochemical; details: for precipitation / homogeneity in 2% Carbopol 980 gel: Carbopol 980 adjusted to pH 7.4 prior to addition
Description: Gels were prepared by dispersing 1-3% w/v of Carbopol polymer (w/v) into purified water with constant mixing and thus allowed to hydrate for 5 hours. Care was taken to avoid air entrapment by agitating the solution slowly on a rocker during preparation of the gel. After 5 hours, the pH of the gel was adjusted to pH 7.4 using triethylamine (Sigma-Aldrich, Lot #STBF616V) to neutralise the pH and turn the solution into a gel (triethanolamine is contemplated herein as a suitable alternative to triethylamine).
For production of methotrexate-GNP hydrogel, 2% w/v Carbopol®980 was initially dispersed for 5 hours with constant mixing. […] Plain methotrexate drug gel was prepared by dissolving MTX-PEG3-NH2 in water and adjusting the pH to pH 4.5. The MTX-PEG3-NH2 solution was added to the previously made 2% Carbopol®980 solution.
The method for formulating gold nanoparticles into Carbopol®980 gels was optimised by testing the effects of pH and speed of addition of nanoparticles using control [α-Gal][PEG8COOH]@Au GNPs. […] The gels were all stored at 4° C.
For production of methotrexate-GNP hydrogel, 2% w/v Carbopol®980 was dispersed for 5 hours with constant mixing. The pH of the Carbopol®980 solution was adjusted to pH 7.4 to produce a clear gel. […] Plain methotrexate drug gel was prepared by adding MTX-PEG3-NH2 dissolved in water to the pH 7.4 adjusted Carbopol®980 gel (2%).

SMILES | animal wellbeing ([1]; mouse, in vivo) | tolerability / systemic toxicity (liver enzyme measurements, daily weight monitoring) ([1]; mouse, in vivo, sc, 2 mg/kg) | IMQ-induced inflammation (ear thickness) ([1]; systemic (subcutaneous), 2 mg/kg MTX daily) | ear thickness / inflammation control ([1]; systemic MTX 5 mg/kg daily) | precipitation / homogeneity in 2% Carbopol 980 gel [2] | precipitation / homogeneity in 2% Carbopol 980 gel ([2]; listed as modified methotrexate) | precipitation on addition to 2% Carbopol 980 solution ([2]; acidic addition (GNPs pH 2.6; MTX-PEG3-NH2 pH 4.5), Carbopol not neutralised)
CN(Cc1cnc2nc(N)nc(N)c2n1)c1ccc(C(=O)N[C@@H](CCC(=O)O)C(=O)O)cc1 [MTX, Methotrexate] | irrevocably impaired animal wellbeing | tolerable | no significant inflammation control | clinically effective | – | – | –
CN(Cc1cnc2nc(N)nc(N)c2n1)c1ccc(C(=O)NC(CCC(=O)NCCCOCCOCCOCCCN)C(=O)O)cc1 (stereo not shown) [MTX-PEG3-NH2, 4-[(3-{2-[2-(3-aminopropoxy)ethoxy]ethoxy}propyl)carbamoyl]-2-[(4-{[(2,4-diaminopteridin-6-yl)methyl](methyl)amino}phenyl)formamido]butanoic acid] | – | – | – | – | no precipitation | without precipitation | small level of yellow precipitation
